Data reported in PMC11249012 (Journal of Medicinal Chemistry, 2024).
In brackets after ≈: the same amount, converted by molar mass. Where two headings read alike, the source gives them in different places.

Assays:
VDR = molecular target: T1, VDR (Mus musculus, UniProt P48281); experiment: Cyp24a1 induction in B16-F10 melanoma cells; type: cell-based; design: endogenous in cells; host or cells: mouse B16-F10 melanoma cells; conditions: Figure S2A
T1 sequence (P48281 1-422): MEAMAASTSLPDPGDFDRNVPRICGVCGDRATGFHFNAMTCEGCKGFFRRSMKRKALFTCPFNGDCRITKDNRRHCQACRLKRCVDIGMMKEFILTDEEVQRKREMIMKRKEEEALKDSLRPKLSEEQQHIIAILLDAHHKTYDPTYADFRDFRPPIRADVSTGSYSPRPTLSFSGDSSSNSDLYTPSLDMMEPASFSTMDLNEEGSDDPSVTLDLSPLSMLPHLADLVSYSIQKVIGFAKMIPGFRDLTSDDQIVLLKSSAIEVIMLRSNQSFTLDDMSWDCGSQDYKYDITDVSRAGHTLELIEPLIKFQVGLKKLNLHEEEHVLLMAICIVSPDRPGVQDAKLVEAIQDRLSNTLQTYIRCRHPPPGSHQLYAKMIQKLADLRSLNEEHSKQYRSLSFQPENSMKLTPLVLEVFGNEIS
Text: (§1) B16-F10 cells are responsive to 1,25D analogues[45] and HDACi[46],[47] and are therefore widely used in preclinical studies of melanoma solid tumor growth and metastases.[48] Although curable when treated early, melanoma is fatal when invasive. The American Cancer Society projected 97,610 new invasive melanoma cases in the US in 2023 and 7990 deaths. Current treatment options include chemotherapy, surgery, immunotherapy, or single agents targeting mutated genes such as B-RAF or C-KIT.[49]
RNA extraction was performed with the FavorPrep tissue total RNA mini kit (FAVORGEN Biotech Corporation FATRK 001) as per manufacturer’s instructions. cDNA was obtained from 1 μg of RNA using 5× All-in-One RT MasterMix (Applied Biological Materials (abm) Inc. G485) and diluted 5 times. qPCR was performed with BrightGreen 2× q-PCR MasterMix (abm MasterMix-LR-XL) on a Roche LightCycler 96 system. Expression of targeted genes was normalized to 18 s.
Figure S2. A. Analysis of Cyp24a1 induction by ZG126, DK406, AM193 along with 1,25D and SAHA as controls in B16-F10 cells. B. Western blots analyzing the effects of 1,25D, SAHA and hybrids on hyperacetylation of tubulin, H3K9 and H3K27 in B16-F10 cells. C. Quantification of the analyses of hyperacetylation in B16-F10 cells of tubulin, H3K9 and H3K27. D. Assessment of cytotoxicity in B16-F10 […]
(1 picture or pasted object on this page, not shown here)

[1] = tested on: hyperacetylation of tubulin, H3K9 and H3K27; experiment: Western blot of tubulin and histone H3 hyperacetylation in B16-F10 cells; type: cell-based, mouse; conditions: SAHA 100 nM
Text: as §1
(§2) After 6 h treatments, 4T1, 4T07, or B16-F10 cells were solubilized in lysis buffer (20 mM Tris, pH 8, 150 mM NaCl, 1% Triton X-100, 3.5 mM SDS, and 13 mM deoxycholic acid), and proteins were separated on a 4–15% Tris/glycine/SDS gel (Bio-Rad). Then, the proteins were transferred to a nitrocellulose membrane, followed by blocking in 5% skim milk in Tris-buffered saline (TBS, 1×) solution. […] Finally, signals were detected using Clarity ECL substrates (Bio-Rad) and a ChemiDoc Imaging System. Changes in protein levels were quantified relative to control using Image Lab software (version 6.0.1) after normalization to GAPDH. […]
Figure S2. […] Quantification of the analyses of hyperacetylation in B16-F10 cells of tubulin, H3K9 and H3K27. […]

HDAC4 = HDAC4 (Homo sapiens, UniProt P56524); experiment: Biochemical assay for HDAC inhibition, HDAC4; conditions: read-out: IC50 HDAC4
Solubility = type: physicochemical
[2] = tested on: hyperacetylation of tubulin, H3K9 and H3K27; experiment: Western blot of tubulin and histone H3 hyperacetylation in 4TO7 cells; type: cell-based, mouse; conditions: hybrids 10 μM, SAHA 100 nM, 6 h
Description: The potential for compounds as HDACi’s can be rapidly tested in cells in culture by monitoring the hyperacetylation of histone H3 and tubulin. H3 acetylation is controlled by multiple class I enzymes, and the class IIb enzyme HDAC6 regulates tubulin acetylation.[36]−[39] […] (Figure 4A).
Figure 4 Evidence for HDAC inhibition in 4T1 and 4TO7 TNBC cells. Western blots and quantification of triplicate biological replicates analyzing the effects of 1,25D (100 nM), SAHA (100 nM), and hybrids (10 μM) on hyperacetylation of tubulin (A,D), H3K9 (B,E), and H3K27 (C,F) in 4T1 (A–C) and 4TO7 cells (D–F).
as §2

Sequence of HDAC4 (P56524 whole entry): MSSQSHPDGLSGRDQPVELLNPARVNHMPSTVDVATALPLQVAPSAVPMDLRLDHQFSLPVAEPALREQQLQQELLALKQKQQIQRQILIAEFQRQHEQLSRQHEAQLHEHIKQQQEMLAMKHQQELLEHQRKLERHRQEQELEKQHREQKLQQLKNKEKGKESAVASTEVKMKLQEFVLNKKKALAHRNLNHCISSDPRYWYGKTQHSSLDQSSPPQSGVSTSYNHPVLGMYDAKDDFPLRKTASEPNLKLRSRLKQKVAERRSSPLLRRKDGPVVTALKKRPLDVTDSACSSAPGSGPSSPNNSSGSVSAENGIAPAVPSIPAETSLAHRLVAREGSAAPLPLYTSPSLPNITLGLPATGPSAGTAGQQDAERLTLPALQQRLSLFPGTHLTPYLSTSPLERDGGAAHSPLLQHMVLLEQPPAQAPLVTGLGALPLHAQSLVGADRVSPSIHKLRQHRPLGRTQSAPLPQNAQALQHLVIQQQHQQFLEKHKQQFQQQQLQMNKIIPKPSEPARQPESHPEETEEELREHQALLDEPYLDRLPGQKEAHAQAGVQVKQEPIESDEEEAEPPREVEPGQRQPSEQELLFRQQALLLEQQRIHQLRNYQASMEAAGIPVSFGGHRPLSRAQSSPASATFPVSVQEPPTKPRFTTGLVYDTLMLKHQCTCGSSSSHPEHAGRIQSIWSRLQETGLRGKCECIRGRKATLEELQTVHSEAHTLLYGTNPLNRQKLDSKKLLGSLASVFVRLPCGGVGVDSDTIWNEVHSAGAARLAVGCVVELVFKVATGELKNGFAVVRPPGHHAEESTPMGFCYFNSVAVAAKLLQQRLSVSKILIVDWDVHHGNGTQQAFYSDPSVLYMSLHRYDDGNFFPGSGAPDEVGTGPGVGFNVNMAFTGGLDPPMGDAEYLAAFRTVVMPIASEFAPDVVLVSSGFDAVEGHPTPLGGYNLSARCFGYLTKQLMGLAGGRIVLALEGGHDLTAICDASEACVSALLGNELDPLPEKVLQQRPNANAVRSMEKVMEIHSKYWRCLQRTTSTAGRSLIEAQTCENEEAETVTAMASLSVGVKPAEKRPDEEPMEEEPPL

With `CCC(CC)(c1ccc(C(=O)NCCCCC(=O)NO)cc1)c1ccc(OCC(O)C(C)(C)C)c(C)n1` (stereo not drawn) [ZG-126, 4-(3-(5-(2-Hydroxy-3,3-dimethylbutoxy)-6-methylpyridin-2-yl)pentan-3-yl)-N-(5-(hydroxyamino)-5-oxopentyl)benzamide] the Cyp24a1 induction (VDR) was “mimicked”, the “tubulin acetylation and histone hyperacetylation” value [1] was “comparable to or greater than that induced by a saturating concentration of SAHA” and the IC50 (HDAC4) was 68 µM. The IC50 (HDAC4; Table 1, purified enzyme, unit inferred) was 67.6 µM, the solubility (Solubility) was 9.19 µg/mL (≈ 17.9 µM) and the “tubulin and histone hyperacetylation” value [2] was “induced higher levels of tubulin and histone hyperacetylation than SAHA”.
